One assay has as its system CjCst-I. Format: biochemical, Campylobacter jejuni.
The subject of another assay is CjCst-II. Format: biochemical, Campylobacter jejuni.

We go through two compounds from patent publication US20240409571A1 (priority 2023, published 2024).

SMILES strings stand for the structures.

Turning to `CCCCCCCCCCCCC/C=C/[C@@H](O)[C@@H](N)CO` [GD1b sphingosine], in the assay on CjCst-I, the activity towards sialylating result is listed as “very good activity”. Regarding `CC(=O)N[C@H]1[C@H](O)[C@H](NC(C)=O)C(O)O[C@@H]1CO` (stereo partly drawn) [ManNAc4NAc, 4-acetamido-4-deoxy-N-acetylmannosamine], in the assay on CjCst-II, the “Sialylation by CjCst-II, acceptor GM3ßSph” value is given as “No reaction” and the “Sialylation by CjCst-II, acceptor GM3βProN3” value was “No reaction”.
